Source: the NIST ThermoML archive (doi:10.1021/je030107c)

How the values were obtained:
[1] = xn = mol fraction of the nth substance listed; conditions: 101.3 kPa, Liquid; for viscosity: Capillary tube (Ostwald / Ubbelohde) method; for speed of sound: Linear variable-path acoustic interferometer; for mass density: Pycnometric method
[2] = refractive index (Na D-line) (dimensionless); xn = mol fraction of the nth substance listed; conditions: 101.3 kPa, Liquid, Standard Abbe refractometry

CCCCN(CCCC)CCCC [tributylamine] + C1COCCO1
Conditions	mass density, 298.15 K [kg/m3]	mass density, 303.15 K [kg/m3]	mass density, 308.15 K [kg/m3]	refractive index, 298.15 K	refractive index, 303.15 K	refractive index, 308.15 K	speed of sound, 298.15 K [m/s]	viscosity, 298.15 K [mPa·s]	viscosity, 303.15 K [mPa·s]	viscosity, 308.15 K [mPa·s]
[1], x2 = 0	774.4	770.1	766.2	–	–	–	1261	1.36	1.221	1.125
[1], x2 = 0.1201	785.1	780.9	776.8	–	–	–	1253	1.245	1.142	1.039
[1], x2 = 0.2122	794.7	790.2	785.9	–	–	–	1254	1.19	1.089	0.989
[1], x2 = 0.3072	806	801.6	797.1	–	–	–	1257	1.156	1.059	0.963
[1], x2 = 0.4085	820.5	815.9	811.4	–	–	–	1264	1.137	1.044	0.95
[1], x2 = 0.5014	836.6	832.1	827.5	–	–	–	1272	1.123	1.032	0.94
[1], x2 = 0.5972	856.9	852.1	847.4	–	–	–	1281	1.118	1.026	0.934
[1], x2 = 0.6998	884	879.2	874.1	–	–	–	1292	1.112	1.022	0.933
[1], x2 = 0.7999	917.9	912.6	907.4	–	–	–	1305	1.114	1.025	0.936
[1], x2 = 0.8947	960.6	955.2	949.9	–	–	–	1320	1.133	1.042	0.952
[2], x2 = 0	–	–	–	1.4274	1.4251	1.4226	–	–	–	–
[2], x2 = 0.1201	–	–	–	1.4266	1.424	1.4215	–	–	–	–
[2], x2 = 0.2122	–	–	–	1.4259	1.4236	1.421	–	–	–	–
[2], x2 = 0.3072	–	–	–	1.425	1.4226	1.4201	–	–	–	–
[2], x2 = 0.4085	–	–	–	1.4244	1.4218	1.4196	–	–	–	–
[2], x2 = 0.5014	–	–	–	1.4234	1.4209	1.4184	–	–	–	–
[2], x2 = 0.5972	–	–	–	1.4226	1.4201	1.4174	–	–	–	–
[2], x2 = 0.6998	–	–	–	1.4217	1.4192	1.4168	–	–	–	–
[2], x2 = 0.7999	–	–	–	1.421	1.4185	1.416	–	–	–	–
[2], x2 = 0.8947	–	–	–	1.4205	1.418	1.4154	–	–	–	–

C1COCCO1 [1,4-dioxane] + CCCCCC
Conditions	mass density, 298.15 K [kg/m3]	mass density, 303.15 K [kg/m3]	mass density, 308.15 K [kg/m3]	refractive index, 298.15 K	refractive index, 303.15 K	refractive index, 308.15 K	speed of sound, 298.15 K [m/s]	viscosity, 298.15 K [mPa·s]	viscosity, 303.15 K [mPa·s]	viscosity, 308.15 K [mPa·s]
[1], x1 = 0.1135	682	677.3	672.5	–	–	–	1087	0.333	0.319	0.304
[1], x1 = 0.2057	706.4	701.4	696.5	–	–	–	1099	0.357	0.34	0.323
[1], x1 = 0.3099	736.2	731.2	726.1	–	–	–	1116	0.391	0.372	0.353
[1], x1 = 0.4032	765.7	760.5	755.3	–	–	–	1132	0.429	0.408	0.386
[1], x1 = 0.501	799.6	794.3	788.9	–	–	–	1154	0.482	0.455	0.429
[1], x1 = 0.6028	838.1	832.7	827.2	–	–	–	1185	0.549	0.517	0.485
[1], x1 = 0.7006	878.7	873.3	868	–	–	–	1220	0.634	0.596	0.557
[1], x1 = 0.7991	924	918.3	912.4	–	–	–	1257	0.753	0.705	0.656
[1], x1 = 0.8962	972.1	966.4	960.8	–	–	–	1303	0.912	0.849	0.787
[1], x1 = 1	1027.6	1021.9	1016.2	–	–	–	1347	1.166	1.069	0.984
[2], x1 = 0.1135	–	–	–	1.3758	1.3728	1.37	–	–	–	–
[2], x1 = 0.2057	–	–	–	1.3787	1.3756	1.3726	–	–	–	–
[2], x1 = 0.3099	–	–	–	1.3824	1.3795	1.3767	–	–	–	–
[2], x1 = 0.4032	–	–	–	1.3864	1.3838	1.3814	–	–	–	–
[2], x1 = 0.501	–	–	–	1.3906	1.3878	1.385	–	–	–	–
[2], x1 = 0.6028	–	–	–	1.3954	1.3928	1.3903	–	–	–	–
[2], x1 = 0.7006	–	–	–	1.4014	1.3986	1.3959	–	–	–	–
[2], x1 = 0.7991	–	–	–	1.4078	1.4048	1.4017	–	–	–	–
[2], x1 = 0.8962	–	–	–	1.414	1.4119	1.4098	–	–	–	–
[2], x1 = 1	–	–	–	1.4201	1.417	1.4143	–	–	–	–

C1COCCO1 [1,4-dioxane] + OCCO
Conditions	mass density, 298.15 K [kg/m3]	mass density, 303.15 K [kg/m3]	mass density, 308.15 K [kg/m3]	refractive index, 298.15 K	refractive index, 303.15 K	refractive index, 308.15 K	speed of sound, 298.15 K [m/s]	viscosity, 298.15 K [mPa·s]	viscosity, 303.15 K [mPa·s]	viscosity, 308.15 K [mPa·s]
[1], x1 = 0.1031	1100.6	1096.6	1092.8	–	–	–	1620	9.007	7.262	5.518
[1], x1 = 0.2072	1090.6	1086.4	1082.4	–	–	–	1577	6.285	5.149	4.013
[1], x1 = 0.3021	1082	1077.6	1073.1	–	–	–	1537	4.654	3.849	3.044
[1], x1 = 0.4246	1071.1	1066.5	1061.7	–	–	–	1485	3.177	2.68	2.181
[1], x1 = 0.5042	1064.5	1059.7	1054.7	–	–	–	1456	2.566	2.184	1.802
[1], x1 = 0.5986	1056.8	1051.7	1046.8	–	–	–	1426	2.012	1.728	1.444
[1], x1 = 0.6914	1049.6	1044.5	1039.5	–	–	–	1400	1.663	1.447	1.229
[1], x1 = 0.7906	1042.4	1037.1	1031.8	–	–	–	1381	1.388	1.226	1.063
[1], x1 = 0.8909	1035.2	1029.9	1024.5	–	–	–	1369	1.212	1.081	0.949
[1], x1 = 1	1027.6	1021.9	1016.2	–	–	–	1347	1.166	1.069	0.984
[2], x1 = 0.1031	–	–	–	1.4294	1.4279	1.4262	–	–	–	–
[2], x1 = 0.2072	–	–	–	1.4284	1.4268	1.425	–	–	–	–
[2], x1 = 0.3021	–	–	–	1.4275	1.4256	1.4236	–	–	–	–
[2], x1 = 0.4246	–	–	–	1.426	1.424	1.4219	–	–	–	–
[2], x1 = 0.5042	–	–	–	1.4248	1.4226	1.4204	–	–	–	–
[2], x1 = 0.5986	–	–	–	1.4238	1.4216	1.4193	–	–	–	–
[2], x1 = 0.6914	–	–	–	1.423	1.4207	1.4186	–	–	–	–
[2], x1 = 0.7906	–	–	–	1.422	1.4196	1.4172	–	–	–	–
[2], x1 = 0.8909	–	–	–	1.421	1.4187	1.4163	–	–	–	–
[2], x1 = 1	–	–	–	1.4201	1.417	1.4143	–	–	–	–

CCN(CC)CC [triethylamine] + C1COCCO1
Conditions	mass density, 298.15 K [kg/m3]	mass density, 303.15 K [kg/m3]	mass density, 308.15 K [kg/m3]	refractive index, 298.15 K	refractive index, 303.15 K	refractive index, 308.15 K	speed of sound, 298.15 K [m/s]	viscosity, 298.15 K [mPa·s]	viscosity, 303.15 K [mPa·s]	viscosity, 308.15 K [mPa·s]
[1], x2 = 0	723.1	718.5	713.6	–	–	–	1127	0.363	0.347	0.33
[1], x2 = 0.1104	744.6	739.7	734.8	–	–	–	1139	0.392	0.372	0.353
[1], x2 = 0.2044	764.5	759.5	754.6	–	–	–	1155	0.418	0.397	0.377
[1], x2 = 0.3028	787.3	782.2	777.1	–	–	–	1172	0.451	0.428	0.404
[1], x2 = 0.398	811.3	806.1	800.9	–	–	–	1189	0.494	0.466	0.438
[1], x2 = 0.4946	838	832.8	827.5	–	–	–	1210	0.542	0.512	0.481
[1], x2 = 0.5986	869.7	864.3	859	–	–	–	1234	0.613	0.575	0.538
[1], x2 = 0.6952	902.3	896.8	891.5	–	–	–	1260	0.697	0.652	0.608
[1], x2 = 0.7996	941.2	935.6	930	–	–	–	1290	0.815	0.76	0.705
[1], x2 = 0.8934	979.8	974.2	968.5	–	–	–	1318	0.958	0.889	0.821
[2], x2 = 0	–	–	–	1.3983	1.3955	1.3926	–	–	–	–
[2], x2 = 0.1104	–	–	–	1.3996	1.3969	1.3942	–	–	–	–
[2], x2 = 0.2044	–	–	–	1.4014	1.3985	1.3956	–	–	–	–
[2], x2 = 0.3028	–	–	–	1.4032	1.4002	1.3972	–	–	–	–
[2], x2 = 0.398	–	–	–	1.4048	1.402	1.3994	–	–	–	–
[2], x2 = 0.4946	–	–	–	1.4068	1.404	1.4013	–	–	–	–
[2], x2 = 0.5986	–	–	–	1.4095	1.4067	1.4041	–	–	–	–
[2], x2 = 0.6952	–	–	–	1.4117	1.409	1.4062	–	–	–	–
[2], x2 = 0.7996	–	–	–	1.4147	1.412	1.4093	–	–	–	–
[2], x2 = 0.8934	–	–	–	1.4176	1.4148	1.4121	–	–	–	–
